Laboratory results as given in US20220146526A1, “METHOD FOR EVALUATING SAMPLE, ANALYSIS METHOD, METHOD FOR DETECTING DEGRADED SAMPLE, MARKER FOR DETECTING DEGRADED BLOOD PLASMA SAMPLE, AND MARKER FOR DETECTING DEGRADED SERUM SAMPLE” (SHIMADZU CORPORATION, priority 2019, published 2022).

Assays:
Format in all cases: physicochemical, human
[1] = LC/MS of blood plasma sample: time from blood collection to cooling of blood (Table E); set-up: key to Rate of increase or decrease / Rate of increase or decrease (first value, increase): detection intensity relative to ≤1 min to cooling = 1; conditions: for Rate of increase or decrease: detection intensity relative to 1 at 1 minute or less, blood collection to cooling 5 minutes; for Increase or decrease: detection intensity, blood collection to cooling 5 minutes or more vs 1 minute or less
Protocol: At room temperature, 5 mL of blood from a healthy subject was taken into a blood-collecting vessel containing EDTA, and the blood-collecting vessel was inverted for mixing, then cooled, and allowed to stand at 4° C. Here, in order to investigate how the detection intensity of molecules contained in the sample was affected in a case where the time to cooling was set to 5 minutes or more as compared to that in a case where the time to cooling was set to 1 minute or less, preparations were performed under both the former condition and the latter condition. After standing, the blood sample was subjected to centrifugation under a condition of 4° C., 3000 rpm, and 15 minutes. […] After centrifugation, the blood-collecting vessel was left to stand at room temperature for 30 minutes, and the blood plasma was isolated during this 30 minutes. The obtained blood plasma sample was frozen and stored. Here, in order to investigate how the detection intensity of molecules contained in the sample was affected in cases where freezing and thawing was performed 4 times, 6 times, and 10 times after freezing as compared to that in a case where freezing and thawing was performed 2 times after freezing, freezing and thawing was performed under the respective conditions of 2, 4, 6, and 10 times.
(§1) Frozen blood plasma samples and serum samples were subjected to GC/MS or LC/MS. In GC/MS, the blood plasma samples and serum samples were subjected to methoxymation and trimethylsilylation and then introduced to GC-MS.
(§2) Analysis column: Discovery HS F5-3 (inner diameter of 2.1 mm, length of 150 mm, film thickness of 3 μm) (Sigma-Aldrich)
(§3) Column temperature: 40° C.
(§4) (A) 0.1% formic acid (dissolved in water)
(§5) (B) 0.1% formic acid (dissolved in acetonitrile)
(§6) Flow velocity: 0.25 mL/min
(§7) Ionization method: electrospray
(§8) Temperature: • Desolvation Line (DL) temperature: 250° C. • Heat block temperature: 400° C. • Interface temperature: 300° C.
(§9) Gas flow rate: • Nebulizer gas flow rate: 3.0 L/min • Drying gas flow rate: 10.0 L/min • Heating gas flow rate: 10.0 L/min
(§10) Mode: multiple reaction monitoring (MRM)
The rate of increase or decrease in Table E is the value of detection intensity relative to 1 that is the detection intensity in a case where the time from blood collection to cooling is set to 1 minute or less.

[2] = LC/MS of blood plasma sample: time from blood collection to centrifugation (Table D); conditions: for Rate of increase or decrease: detection intensity relative to 1 at 15 minutes; for Rate of increase or decrease / Increase or decrease: blood collection to centrifugation; for Increase or decrease: detection intensity; for Rate of increase or decrease (second value, decrease) / Rate of increase or decrease (first value, increase): different from individual to individual, relative to 1 at 15 minutes, collection to centrifugation; for Rate of increase or decrease (second value, decrease): individuals with decrease; for Rate of increase or decrease (first value, increase): individuals with increase
Method in brief: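 Detection intensities are expressed relative to samples centrifuged 15 min after collection (=1), measured by electrospray LC/MS in MRM mode (Discovery HS F5-3, 40 °C, formic acid water/acetonitrile gradient at 0.25 mL/min). EDTA blood from a healthy donor was held at 4 °C, centrifuged at 4 °C, 3000 rpm, 15 min, and plasma frozen.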

[3] = LC/MS of serum sample: number of times of freezing and thawing (Table M); set-up: key to Rate of increase or decrease: detection intensity relative to 1 at 2 freeze-thaw cycles; conditions: for Number of times when compound is affected / Increase or decrease: serum sample, LC/MS; for Number of times when compound is affected: detection intensity changed by 30% or more vs 2 times of freezing and thawing; for Increase or decrease: detection intensity vs 2 times of freezing and thawing
Method in brief: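 Values are detection intensities relative to serum thawed twice, versus 4, 6 or 10 freeze-thaw cycles. Serum came from blood spun at room temperature, 3500 rpm for 5 minutes. Analysis: electrospray LC/MS in MRM mode, Discovery HS F5-3 column, 40° C, 0.1% formic acid in water and acetonitrile.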

[4] = LC/MS of blood plasma sample: number of times of freezing and thawing (Table F); conditions: for Rate of increase or decrease: detection intensity relative to 1 at 2 times; for Increase or decrease: detection intensity
Method in brief: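 Values are detection intensities normalised to 1 for plasma thawed twice, compared against 4, 6 and 10 freeze-thaw cycles. Measured by electrospray LC/MS in MRM mode, formic acid water/acetonitrile mobile phase, column at 40° C. Plasma came from EDTA blood, cooled to 4° C and spun at 3000 rpm for 15 min.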

[5] = LC/MS of serum sample: time from blood collection to centrifugation (Table J); conditions: for Rate of increase or decrease: after 4 hours from blood collection to centrifugation, detection intensity relative to 1 at 15 minutes; for Increase or decrease / Time when compound is affected: serum sample, LC/MS; for Increase or decrease: detection intensity vs 15 minutes from blood collection to centrifugation; for Time when compound is affected: time from blood collection to centrifugation, detection intensity changed by 30% or more vs 15 minutes
Method in brief: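 Detection intensities are expressed relative to 1 for samples centrifuged 15 min after blood collection; centrifugation was at room temperature, 3500 rpm, 5 min. Frozen serum was run by electrospray LC-MS in MRM mode, with 0.1% formic acid water/acetonitrile at 0.25 mL/min on a 40 °C F5 column.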

[6] = LC/MS of serum sample: time from centrifugation to isolation (Table K)
Protocol: After standing, the blood sample was subjected to centrifugation under a condition of room temperature, 3500 rpm, and 5 minutes. […] After centrifugation, the blood-collecting vessel was left to stand at room temperature, and the serum was isolated during this time. Here, in order to investigate how the detection intensity of molecules contained in the sample was affected in cases where the time during which the blood-collecting vessel was left at room temperature was set to 1 hour and 6 hours as compared to that in a case where the time was set to 30 minutes, preparations were performed under the respective conditions of 30 minutes, 1 hour, and 6 hours. The obtained serum sample was frozen and stored. Here, in order to investigate how the detection intensity of molecules contained in the sample was affected in cases where freezing and thawing was performed 4 times, 6 times, and 10 times after freezing as compared to that in a case where freezing and thawing was performed 2 times after freezing, freezing and thawing was performed under the respective conditions of 2, 4, 6, and 10 times.
as §1, §2, §3, §4, §5, §6, §7, §8, §9, §10
The rate of increase or decrease in Table K is the value of detection intensity relative to 1 that is the detection intensity in a case where the time from centrifugation to isolation is set to 30 minutes.

[7] = GC/MS of blood plasma sample: time from blood collection to centrifugation (Table A); conditions: blood collection to centrifugation
Method in brief: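 Read-out is MRM detection intensity by electron-ionization GC/MS on a BPX5 column after methoxymation and trimethylsilylation, expressed relative to a 15-minute collection-to-centrifugation interval. Plasma was prepared from EDTA blood held at 4° C and spun at 4° C, 3000 rpm for 15 minutes, then frozen.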

[8] = GC/MS of blood plasma sample: number of times of freezing and thawing (Table C)
Method in brief: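 Values express detection intensity as a ratio to the 2-cycle freeze-thaw sample (=1), compared with 4, 6 and 10 cycles. Healthy-donor EDTA plasma, cooled at ≤1 min or ≥5 min, spun at 4 °C, 3000 rpm, 15 min. Derivatised by methoxymation/trimethylsilylation; GC-MS/MS in MRM mode with electron ionization.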

[9] = 6 times of freezing and thawing, relative to 1 at 2 times, different from individual to individual, first value (increase)
[10] = 6 times of freezing and thawing, relative to 1 at 2 times, different from individual to individual, second value (decrease)
[11] = freezing and thawing 4 times vs 2 times
[12] = 6 times of freezing and thawing, detection intensity relative to 1 at 2 times
[13] = freezing and thawing 10 times vs 2 times

Row | Rate of increase or decrease [1] | Increase or decrease [1] | Rate of increase or decrease ([2]; after 4 hours) | Increase or decrease ([2]; after 4 hours vs 15 minutes) | Number of times when compound is affected [3] [times] | Increase or decrease [3] | Rate of increase or decrease ([4]; freezing and thawing 4 times) | Increase or decrease [4, 11] | Increase or decrease [5] | Time when compound is affected [5] | SMILES | further results
1 | 2.30 | Increase | 2.57 | Increase | 6 | Different from individual | 0.95 | Decrease | Decrease | After 4 hours | N[C@@H](Cc1ccc(O)c(O)c1)C(=O)O [Dopa] | Rate of increase or decrease [3, 9]: 1.30; Rate of increase or decrease [3, 10]: 0.31; Rate of increase or decrease [5]: 0.56
2 | 1.60 | Increase | – | – | – | – | 1.33 | Increase | – | – | C[S+](CC[C@H](N)C(=O)[O-])C[C@H]1O[C@@H](n2cnc3c(N)ncnc32)[C@H](O)[C@@H]1O (stereo partly drawn) [S-adenosylmethionine] | Rate of increase or decrease ([2]; after 6 hours): 0.62; Increase or decrease ([2]; after 6 hours vs 15 minutes): Decrease
3 | 1.34 | Increase | 1.75 | Increase | – | – | 1.98 | Increase | – | – | Nc1ccn([C@@H]2O[C@H](COP(=O)(O)O)[C@@H](O)[C@H]2O)c(=O)n1 [Cytidine monophosphate] | –
4 | 1.41 | Increase | 2.20 | Increase | 10 | Decrease | – | – | Increase | After 12 hours | O=C(O)[C@@H]1CCCN1 [Proline] | Rate of increase or decrease ([3]; 10 times of freezing and thawing, detection intensity relative to 1 at 2 times): 0.59; Rate of increase or decrease ([6]; after 6 hours from centrifugation to isolation, detection intensity relative to 1 at 30 minutes): 2.35; Increase or decrease ([6]; serum sample, LC/MS, detection intensity vs 30 minutes from centrifugation to isolation): Increase; Time when compound is affected ([6]; serum sample, LC/MS, time from centrifugation to isolation, detection intensity changed by 30% or more vs 30 minutes): After 6 hours
5 | 0.66 | Decrease | – | – | 6 | Different from individual | – | – | – | – | CN(C)CC(=O)O [Dimethylglycine] | Increase or decrease ([2]; after 12 hours vs 15 minutes): Different from individual; Rate of increase or decrease (second value, decrease) ([2]; after 12 hours): 0.63; Rate of increase or decrease (first value, increase) ([2]; after 12 hours): 1.57; Rate of increase or decrease ([7]; detection intensity relative to 1 at 15 minutes, after 12 hours): 1.41; Increase or decrease ([7]; detection intensity, after 12 hours vs 15 minutes): Increase; Rate of increase or decrease ([8]; detection intensity relative to 1 at 2 times, freezing and thawing 10 times): 1.34; Increase or decrease ([8]; detection intensity, freezing and thawing 10 times vs 2 times): Increase; Rate of increase or decrease [3, 9]: 1.34; Rate of increase or decrease [3, 10]: 0.61; Rate of increase or decrease ([4]; freezing and thawing 10 times): 1.37; Increase or decrease [4, 13]: Increase
6 | 1.33 | Increase | – | Different from individual | – | – | – | Increase | – | – | N[C@@H](CCC(=O)N[C@@H](CS)C(=O)O)C(=O)O [5-Glutamylcysteine] | Rate of increase or decrease (second value, decrease) ([2]; after 4 hours): 0.70; Rate of increase or decrease (first value, increase) ([2]; after 4 hours): 1.79
7 | 1.40 | Increase | 1.44 | Increase | 6 | Decrease | – | – | Increase | After 4 hours | NC(=O)c1cccnc1 [Nicotinamide] | Rate of increase or decrease [3, 12]: 0.69; Increase or decrease ([4]; freezing and thawing 6 times vs 2 times): Increase; Rate of increase or decrease [5]: 2.16

Row | SMILES | Rate of increase or decrease [1] | Increase or decrease [1] | Rate of increase or decrease ([2]; after 4 hours) | Increase or decrease ([2]; after 4 hours vs 15 minutes) | Number of times when compound is affected [3] [times] | Increase or decrease [3] | Rate of increase or decrease ([4]; freezing and thawing 4 times) | Increase or decrease [4, 11] | Increase or decrease [5] | Time when compound is affected [5] | further results
8 | C[C@H](CCC(=O)O)[C@H]1CC[C@H]2[C@@H]3[C@H](O)C[C@@H]4C[C@H](O)CC[C@]4(C)[C@H]3C[C@H](O)[C@]12C [Cholic acid] | 1.36 | Increase | – | – | 6 | Decrease | – | – | – | – | Rate of increase or decrease ([2]; after 12 hours): 1.99; Increase or decrease ([2]; after 12 hours vs 15 minutes): Increase; Rate of increase or decrease [3, 12]: 0.57; Rate of increase or decrease ([4]; freezing and thawing 10 times): 3.26; Increase or decrease [4, 13]: Increase
